Counter-ions that a name gives are not always drawn.
Target: T1, SIRT2 (Homo sapiens, UniProt Q8IXJ6)
T1 construct: recombinant active enzymes SIRT1, SIRT2, and the catalytically active fragment of SIRT3
T1 sequence (Q8IXJ6 1-389): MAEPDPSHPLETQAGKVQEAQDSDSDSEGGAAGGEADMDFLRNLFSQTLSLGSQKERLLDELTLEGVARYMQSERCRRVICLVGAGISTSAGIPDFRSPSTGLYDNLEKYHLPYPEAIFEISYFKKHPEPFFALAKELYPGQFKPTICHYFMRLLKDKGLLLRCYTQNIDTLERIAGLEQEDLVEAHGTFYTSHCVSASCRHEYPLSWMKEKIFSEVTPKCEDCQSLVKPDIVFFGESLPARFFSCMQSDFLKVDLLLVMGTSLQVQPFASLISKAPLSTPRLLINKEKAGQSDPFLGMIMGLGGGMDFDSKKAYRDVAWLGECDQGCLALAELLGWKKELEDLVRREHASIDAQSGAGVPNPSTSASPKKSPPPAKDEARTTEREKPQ
Test: Fluor-de-Lys biochemical sirtuin deacetylation assay, SIRT2
Conditions: 10 μM; for % of SIRT2 Inhibition at 10 μM: C2-8 derivatives

[1] = sulfone, sulfoxide, thioether derivatives of C2-8 scaffold

| inhibition at 10 µM | SMILES | further results |
| --- | --- | --- |
| 0% | Cc1cc(Br)ccc1NC(=O)c1cccc(S(=O)(=O)N(C)c2ccc(Br)cc2)c1 [Compound 203e, N-(4-bromo-2-methylphenyl)-3-(N-(4-bromophenyl)-N-methylsulfamoyl)benzamide] |  |
| 0% | CN(C(=O)c1cncc(CN(Cc2ccc(C#N)cc2)C2CC2)c1)c1ccc(Cl)cc1 [Compound 225p, N-(4-chlorophenyl)-5-(((4-cyanobenzyl)(cyclopropyl)amino)methyl)-N-methylnicotinamide hydrochloride] |  |
| 10% | CC(=O)c1ccc(CN(Cc2cncc(C(=O)Nc3ccc(C#N)cc3)c2)C2CC2)cc1 [Compound 225r, 5-(((4-acetylbenzyl)(cyclopropyl)amino)methyl)-N-(4-cyanophenyl)nicotinamide hydrochloride] |  |
| 28% | CC(C)(C)N(Cc1ccc(C#N)cc1)Cc1cccc(C(=O)Nc2ccc(C#N)cc2)c1 [Compound 225h, 3-((tert-butyl(4-cyanobenzyl)amino)methyl)-N-(4-cyanophenyl)benzamide hydrochloride] |  |
| 21% | CC(O)c1ccc([C@@H](C)Oc2cccc(C(=O)Nc3ccc(C#N)cc3)c2)cc1 (stereo partly drawn) [Compound 216Am, N-(4-cyanophenyl)-3-((1R)-1-(4-(1-hydroxyethyl)phenyl)ethoxy)benzamide] |  |
| 41% | CC(Oc1cccc(C(=O)Nc2ccc(C#N)cc2)c1)c1ccc(C2COC2)cc1 (stereo not drawn) [Compound 216Ah, N-(4-cyanophenyl)-3-(1-(4-(oxetan-3-yl)phenyl)ethoxy)benzamide] |  |
| 55% | CC(C)(Oc1cccc(C(=O)Nc2ccc(C#N)cc2)c1)c1ccc(F)cc1 [Compound 216p, N-(4-cyanophenyl)-3-((2-(4-fluorophenyl)propan-2-yl)oxy)benzamide] |  |
| 19% | CS(=O)(=O)c1ccc(CS(=O)(=O)c2cccc(C(=O)Nc3ccc(C#N)cc3)c2)cc1 [Compound 212a, N-(4-cyanophenyl)-3-((4-(methylsulfonyl)benzyl)sulfonyl)benzamide] |  |
| 43% | Nc1cccc(NC(=O)c2cccc(S(=O)(=O)N3CCCCCC3)c2)c1 [Compound 203i, N-(3-aminophenyl)-3-(azepan-1-ylsulfonyl)benzamide] |  |
|  | N#Cc1ccc(NC(=O)c2cccc(SCc3ccc(Cl)cc3)c2)cc1 [Compound 181, 3-((4-chlorobenzyl)thio)-N-(4-cyanophenyl)benzamide] | inhibition at 10 µM [1]: 81% |
|  | O=C(Nc1ccc(Cl)cn1)c1cccc(S(=O)(=O)Cc2ccc(Cl)cc2)c1 [Compound 173, 3-((4-chlorobenzyl)sulfonyl)-N-(5-chloropyridin-2-yl)benzamide] | inhibition at 10 µM [1]: 2% |
| 37% | N#Cc1ccc(NC(=O)c2cccc(CN(Cc3ccc(Br)cc3)C3CC3)c2)cc1 [Compound 225l, 3-(((4-bromobenzyl)(cyclopropyl)amino)methyl)-N-(4-cyanophenyl)benzamide hydrochloride] |  |
| 20% | N#Cc1cccc(NC(=O)c2cncc(CN(Cc3ccc(F)c(F)c3)C3CC3)c2)c1 [Compound 225w, N-(3-cyanophenyl)-5-((cyclopropyl(3,4-difluorobenzyl)amino)methyl)nicotinamide hydrochloride] |  |
| 44% | N#Cc1ccc(NC(=O)c2cccc(CN(Cc3ccc(C#N)nc3)C3CC3)c2)cc1 [Compound 225g, N-(4-cyanophenyl)-3-((((6-cyanopyridin-3-yl)methyl)(cyclopropyl)amino)-methyl)benzamide hydrochloride] |  |
| 8% | N#Cc1ccc(CN(Cc2cncc(C(=O)Nc3ccc(Cl)cc3)c2)C2CC2)cc1 [Compound 225o, N-(4-chlorophenyl)-5-(((4-cyanobenzyl)(cyclopropyl)amino)methyl)nicotinamide hydrochloride] |  |
|  | O=C(Nc1ccc(Cl)nn1)c1cccc(S(=O)(=O)Cc2ccc(Cl)cc2)c1 [Compound 179, 3-((4-chlorobenzyl)sulfonyl)-N-(6-chloropyridazin-3-yl)benzamide] | inhibition at 10 µM [1]: 0% |
| 44% | CC(=O)c1ccc(C(Oc2cccc(C(=O)Nc3ccc(C#N)cc3)c2)C(C)C)cc1 (stereo not drawn) [Compound 216Ap, 3-(1-(4-acetylphenyl)-2-methylpropoxy)-N-(4-cyanophenyl)benzamide] |  |
|  | C[S+]([O-])c1ccc(NC(=O)c2cccc(S(=O)(=O)Cc3ccc(Cl)cc3)c2)cc1 (stereo not drawn) [Compound 175, 3-((4-chlorobenzyl)sulfonyl)-N-(4-(methylsulfinyl)phenyl)benzamide] | inhibition at 10 µM [1]: 31% |
| 63% | CN(Cc1ccc(C#N)cc1)Cc1cccc(C(=O)Nc2ccc(C#N)cc2)c1 [Compound 225a, 3-(((4-cyanobenzyl)(methyl)amino)methyl)-N-(4-cyanophenyl)benzamide] |  |
|  | CN(c1ccc(Cl)cc1)S(=O)(=O)c1cccc(C(=O)NCc2ccccn2)c1 [Compound 62, 3-(N-(4-chlorophenyl)-N-methylsulfamoyl)-N-(pyridin-2-ylmethyl)benzamide] | % of SIRT2 Inhibition at 10 μM: 3% |

| inhibition at 10 µM | SMILES | further results |
| --- | --- | --- |
|  | COc1ccc(CS(=O)(=O)c2cccc(C(=O)Nc3ccc(C#N)cc3)c2)cc1 [Compound 180, N-(4-cyanophenyl)-3-((4-methoxybenzyl)sulfonyl)benzamide] | inhibition at 10 µM [1]: 50% |
| 62% | CC(=O)c1ccc(C(C)Oc2cccc(C(=O)Nc3ccc(F)cc3)c2)cc1 (stereo not drawn) [Compound 216Aw, 3-(1-(4-acetylphenyl)ethoxy)-N-(4-fluorophenyl)benzamide] |  |
| 11% | C=CCOc1cc(OCc2ccc(C#N)cc2)cc(C(=O)Nc2ccc(C#N)cc2)c1 [Compound 216v, 3-(allyloxy)-5-((4-cyanobenzyl)oxy)-N-(4-cyanophenyl)benzamide] |  |
| 27% | CC(=O)c1ccc(C(C)(C)Oc2cccc(C(=O)Nc3ccc(C(F)(F)F)cc3)c2)cc1 [Compound 216Au, 3-((2-(4-acetylphenyl)propan-2-yl)oxy)-N-(4-(trifluoromethyl)phenyl)benzamide] |  |
| 12% | N#Cc1ccc(COc2cccc(/C(N)=N\c3ccc(C#N)cc3)c2)cc1 [Compound 234b, 3-((4-cyanobenzyl)oxy)-N′-(4-cyanophenyl)benzimidamide hydrochloride] |  |
| 15% | CN(c1ccc(Cl)cc1)S(=O)(=O)c1cccc(C(=O)Nc2ccc(CN)cc2)c1 [Compound 203Aa, N-(4-(aminomethyl)phenyl)-3-(N-(4-chlorophenyl)-N-methylsulfamoyl)benzamide] |  |
| 97% | CC(=O)c1ccc(NC(=O)c2cccc(O[C@H](C)c3ccc(C(C)=O)cc3)c2)cc1 [Compound 216As, (R)—N-(4-acetylphenyl)-3-(1-(4-acetylphenyl)ethoxy)benzamide] |  |
| 80% | CC(=O)c1ccc(C(C)(C)Oc2cccc(C(=O)Nc3ccc(C#N)cc3)c2)cc1 [Compound 216Ai, 3-((2-(4-acetylphenyl)propan-2-yl)oxy)-N-(4-cyanophenyl)benzamide] |  |
|  | CC(=O)c1ccc(NC(=O)c2cccc(S(=O)(=O)Cc3ccc(Cl)cc3)c2)cc1 [Compound 178, N-(4-acetylphenyl)-3-((4-chlorobenzyl)sulfonyl)benzamide] | inhibition at 10 µM [1]: 23% |
| 24% | CC(=O)c1ccc(CN(Cc2cccc(C(=O)Nc3ccc(C#N)cc3)c2)C2CC2)cc1 [Compound 225x, 3-(((4-acetylbenzyl)(cyclopropyl)amino)methyl)-N-(4-cyanophenyl)benzamide hydrochloride] |  |
|  | N#Cc1ccc(NC(=O)c2cccc([S+]([O-])Cc3ccc(Cl)cc3)c2)cc1 (stereo not drawn) [Compound 186, N-(4-cyanophenyl)-3-((4-chlorobenzyl)sulfinyl)benzamide] | inhibition at 10 µM [1]: 47% |
| 39% | C[C@@H](Oc1cccc(/C(N)=N\c2ccc(C#N)cc2)c1)c1ccc(C#N)cc1 [Compound 234c, (R)—N′-(4-cyanophenyl)-3-(1-(4-cyanophenyl)ethoxy)benzimidamide hydrochloride] |  |
| 89% | CC(=O)c1ccc(C(C)Oc2cccc(C(=O)Nc3ccc(Cl)cc3)c2)cc1 (stereo not drawn) [Compound 216Av, 3-(1-(4-acetylphenyl)ethoxy)-N-(4-chlorophenyl)benzamide] |  |
| 88% | C[C@@H](Oc1cccc(C(=O)Nc2ccc(C#N)cc2)c1)c1ccc(F)cc1 [Compound 216l, (R)—N-(4-cyanophenyl)-3-(1-(4-fluorophenyl)ethoxy)benzamide] |  |
| 12% | COc1ccc(N(C)S(=O)(=O)c2cccc(/C(N)=N\c3ccc(C#N)cc3)c2)cc1 [Compound 234d, N′-(4-cyanophenyl)-3-(N-(4-methoxyphenyl)-N-methylsulfamoyl)benzimidamide hydrochloride] |  |
| 5% | CC(=O)c1ccc(NC(=O)c2cncc(CN(Cc3ccc(F)c(F)c3)C3CC3)c2)cc1 [Compound 225u, N-(4-acetylphenyl)-5-((cyclopropyl(3,4-difluorobenzyl)amino)methyl)nicotinamide hydrochloride] |  |
| 12% | N#Cc1ccc(/N=C(/N)c2cccc(OCc3cccc(F)c3F)c2)cc1 [Compound 234a, N′-(4-cyanophenyl)-3-((2,3-difluorobenzyl)oxy)benzimidamide hydrochloride] |  |
| 17% | CN(C(=O)c1cccc(S(=O)(=O)N(C)c2ccc(Br)cc2)c1)c1ccc(F)cc1F [Compound 203t, 3-(N-(4-bromophenyl)-N-methylsulfamoyl)-N-(2,4-difluorophenyl)-N-methyl-benzamide] |  |
|  | CN(c1ccc(Cl)cc1)S(=O)(=O)c1cccc(C(=O)NCc2ccccn2)c1 [Compound 53, 3-(N-(4-chlorophenyl)-N-methylsulfamoyl)-N-(pyridin-2-ylmethyl)benzamide] | % of SIRT2 Inhibition at 10 μM: 0% |
